Assay results: ChEMBL document CHEMBL3046537, “Tautomeric origin of dual effects of N1-nicotinoyl-3-(4-hydroxy-3-methyl phenyl)-5-[(sub)phenyl]-2-pyrazolines on bacterial and viral strains: POM analyses as new efficient bioinformatics platform to predict and optimize bioactivity of drugs” (Med Chem Res, 2013)
pIC50: −log10 of the molar value.

What was measured:
[1] = test system: Aspergillus fumigatus; assay: Antifungal activity against Aspergillus fumigatus; assay type: functional
[2] = test system: Staphylococcus aureus; assay: Antibacterial activity against Staphylococcus aureus 209P; assay type: functional
[3] = test system: Escherichia coli; assay: Antibacterial activity against Escherichia coli 2231; assay type: functional
[4] = test system: Candida albicans; assay: Antifungal activity against Candida albicans; assay type: functional
[5] = test system: Human immunodeficiency virus; assay: Antiviral activity against Human immunodeficiency virus assessed as protection against virus-induced cytopathogenicity; assay type: functional; design: concentration or dose not given beside the values
[6] = test system: Human immunodeficiency virus; assay: Antiviral activity against Human immunodeficiency virus; assay type: functional, organism-based; details: Human immunodeficiency virus 1
[7] = test system: Nakaseomyces glabratus; assay: Antifungal activity against Candida glabrata H05; assay type: functional
[8] = test system: Candida albicans; assay: Antifungal activity against Candida albicans ATCC 10231; assay type: functional
[9] = test system: Pichia kudriavzevii; assay: Antifungal activity against Pichia kudriavzevii G03; assay type: functional

Compound | inhibition zone (IZ) [1] | inhibition zone (IZ) [2] | inhibition zone (IZ) [3] | inhibition zone (IZ) [4] | Activity [5] | pIC50 [6] | inhibition zone (IZ) [7] | inhibition zone (IZ) [8] | inhibition zone (IZ) [9]
Cc1cc(C2=CC(c3c(Cl)cccc3Cl)N(C(=O)c3ccncc3)N2)ccc1O (stereo not given) | >15 mm | >15 mm | >15 mm | >15 mm | 24% | < 4.85 | 10 mm | >15 mm | 5 mm
Cc1cc(C2=CC(c3ccccc3)N(C(=O)c3ccncc3)N2)ccc1O (stereo not given) | 5 mm | 5 mm | 5 mm | <5 mm | 13% | < 4.96 | <5 mm | <5 mm | <5 mm
COc1ccc(C2C=C(c3ccc(O)c(C)c3)NN2C(=O)c2ccncc2)cc1OC (stereo not given) | 10 mm | 10 mm | 10 mm | 5 mm | 24% | < 4.85 | <5 mm | <5 mm | <5 mm
COc1cc(C2C=C(c3ccc(O)c(C)c3)NN2C(=O)c2ccncc2)cc(OC)c1OC (stereo not given) | 5 mm | 5 mm | 5 mm | 5 mm | 26% | < 4.18 | <5 mm | <5 mm | <5 mm
Cc1cc(C2=CC(c3ccco3)N(C(=O)c3ccncc3)N2)ccc1O (stereo not given) | >15 mm | >15 mm | >15 mm | 5 mm | 86% | 5.15 | <5 mm | <5 mm | <5 mm
Cc1cc(C2=CC(c3ccc(F)cc3)N(C(=O)c3ccncc3)N2)ccc1O (stereo not given) | >15 mm | >15 mm | >15 mm | >15 mm | 8% | < 4.17 | <5 mm | <5 mm | <5 mm
Cc1cc(C2=CC(c3ccccc3Cl)N(C(=O)c3ccncc3)N2)ccc1O (stereo not given) | >15 mm | >15 mm | >15 mm | <5 mm | 24% | < 4.28 | <5 mm | <5 mm | <5 mm
Cc1cc(C2=CC(c3cccc([N+](=O)[O-])c3)N(C(=O)c3ccncc3)N2)ccc1O (stereo not given) | >15 mm | >15 mm | >15 mm | <5 mm | 40% | < 4.96 | <5 mm | <5 mm | <5 mm
COc1ccc(C2C=C(c3ccc(O)c(C)c3)NN2C(=O)c2ccncc2)cc1 (stereo not given) | 5 mm | 5 mm | 10 mm | <5 mm | 24% | < 3.90 | <5 mm | <5 mm | <5 mm
Cc1cc(C2=CC(c3ccc(Cl)cc3)N(C(=O)c3ccncc3)N2)ccc1O (stereo not given) | >15 mm | >15 mm | >15 mm | >15 mm | 42% | < 4.44 | <5 mm | <5 mm | <5 mm
Cc1cc(C2=CC(c3ccc(N(C)C)cc3)N(C(=O)c3ccncc3)N2)ccc1O (stereo not given) | >15 mm | >15 mm | >15 mm | >15 mm | 102% | 5.22 | 10 mm | 10 mm | 5 mm
OC(Cn1cncn1)(Cn1cncn1)c1ccc(F)cc1F [FLUCONAZOLE] | >15 mm | <5 mm | <5 mm | >15 mm | – | – | >15 mm | >15 mm | >15 mm
Cc1ccnc2c1NC(=O)c1cccnc1N2C1CC1 [NEVIRAPINE] | – | – | – | – | 98% | 7.00 | – | – | –
CC1COc2c(N3CCN(C)CC3)c(F)cc3c(=O)c(C(=O)O)cn1c23 (stereo not given) [OFLOXACIN] | <5 mm | >15 mm | >15 mm | <5 mm | – | – | <5 mm | <5 mm | <5 mm
